Results reported in US20080113101A1, “ORGANIC-ELECTROLUMINESCENCE-MATERIAL-CONTAINING SOLUTION, METHOD FOR FORMING THIN FILM OF ORGANIC ELECTROLUMINESCENCE MATERIAL, THIN FILM OF ORGANIC ELECTROLUMINESCENCE MATERIAL AND ORGANIC ELECTROLUMINESCENCE DEVICE” (Idemitsu Kosan Co., Ltd., priority 2006, published 2008).

Assay: Solubility Evaluation 1: solubility of host compounds in toluene
Assay type: physicochemical
Settings: host compounds
Experimental: Solubility Evaluation 1 was conducted by the following method.
(§1) A hundred mg of each compound was placed in a sample pot and the toluene as the solvent was added until the compound was dissolved. The solubility in the toluene was obtained from an amount of the added toluene.

| SMILES | solubility in the toluene (in words) |
| --- | --- |
| c1ccc(-c2ccc(-c3ccccc3-c3c4ccccc4c(-c4c5ccccc5c(-c5ccccc5-c5ccc(-c6ccccc6)cc5)c5ccccc45)c4ccccc34)cc2)cc1 [Compound H9] | solubility capable of performing the thickness control of the films |

Same assay, conditions: in toluene; 100 mg compound, toluene added until dissolved

| SMILES | Solubility (%) |
| --- | --- |
| c1ccc2cc(-c3c4ccccc4c(-c4ccc(-c5cccc6ccccc56)cc4)c4ccccc34)ccc2c1 [Compound H4] | 5.0 |
| c1ccc2cc(-c3ccc4cc(-c5c6ccccc6c(-c6ccc(-c7cccc8ccccc78)cc6)c6ccccc56)ccc4c3)ccc2c1 [Compound H3] | 2.0 |
| c1cc(-c2ccc3ccccc3c2)cc(-c2c3ccccc3c(-c3cccc4ccccc34)c3ccccc23)c1 [Compound H6] | 0.25 |
| c1ccc(-c2cc(-c3ccc4ccccc4c3)cc(-c3c4ccccc4c(-c4ccc5ccccc5c4)c4ccccc34)c2)cc1 [Compound H5] | 5.0 |
| c1cc(-c2ccc3ccccc3c2)cc(-c2c3ccccc3c(-c3ccc4cc(-c5ccc6ccccc6c5)ccc4c3)c3ccccc23)c1 [Compound H7] | 0.25 |
| c1ccc(-c2ccc(-c3c4ccccc4c(-c4ccccc4)c4ccccc34)cc2)cc1 [Compound H8] | 0.2 |
| c1ccc(-c2ccc(-c3ccccc3-c3c4ccccc4c(-c4c5ccccc5c(-c5ccccc5-c5ccc(-c6ccccc6)cc5)c5ccccc45)c4ccccc34)cc2)cc1 [Compound H9] | 1.4 |
| c1cc(-c2ccc(-c3cccc4ccccc34)cc2)cc(-c2c3ccccc3c(-c3ccc(-c4cccc5ccccc45)cc3)c3ccccc23)c1 [Compound H2] | 2.0 |
| c1ccc2cc(-c3ccc(-c4c5ccccc5c(-c5ccc(-c6cccc7ccccc67)cc5)c5ccccc45)cc3)ccc2c1 [Compound H1] | 2.0 |

Assay: Solubility Evaluation 2: solubility of dopant compounds in toluene
Assay type: physicochemical
Settings: Table 2
Experimental: as §1

| SMILES | Solubility (%) |
| --- | --- |
| CCC(C)c1ccc(N(c2ccccc2)c2c3ccc(C(C)C)cc3c(N(c3ccccc3)c3ccc(C(C)CC)cc3)c3ccc(CC(C)(C)C)cc23)cc1 (centres unmarked) [EM137] | 1 |
| Cc1ccc(N(c2ccc(C)cc2)c2c3ccc(C(C)(C)C)cc3c(N(c3ccc(C)cc3)c3ccc(C)cc3)c3ccc(C(C)(C)C)cc23)cc1 [EM143] | 0.5 |
| Cc1ccc(N(c2ccc(C)c(C)c2)c2c3ccc(C(C)(C)C)cc3c(N(c3ccc(C)c(C)c3)c3ccc(C)c(C)c3)c3ccc(C(C)(C)C)cc23)cc1C [EM145] | 0.5 |
| Cc1ccc(N(c2ccc(C(C)C)cc2)c2c3ccc(C(C)(C)C)cc3c(N(c3ccc(C)cc3)c3ccc(C(C)C)cc3)c3ccc(C(C)(C)C)cc23)cc1 [EM144] | 0.5 |
| Cc1ccc(N(c2ccc(C(C)C)cc2)c2c3ccccc3c(N(c3ccc(C)cc3)c3ccc(C(C)C)cc3)c3cc(C45CC6CC(CC(C6)C4)C5)ccc23)cc1 [EM176] | 0.5 |
| Cc1ccc(N(c2ccc(C)cc2)c2c3ccc(C4CCCCC4)cc3c(N(c3ccc(C)cc3)c3ccc(C)cc3)c3ccc(C(C)C)cc23)cc1 [EM138] | 0.5 |
| Cc1ccc(N(c2ccc(C(C)C)cc2)c2c3ccccc3c(N(c3ccc(C)cc3)c3ccc(C(C)C)cc3)c3cc(C(C)(C)C)ccc23)cc1 [EM141] | 0.5 |
| Cc1cccc(N(c2cccc(C)c2)c2c3ccccc3c(N(c3cccc(C)c3)c3cccc(C)c3)c3cc(C4CC5CCC4C5)ccc23)c1 (centres unmarked) [EM175] | 0.5 |
| Cc1cccc(N(c2cccc(C(C)C)c2)c2c3ccc(C(C)(C)C)cc3c(N(c3cccc(C)c3)c3cccc(C(C)C)c3)c3ccc(C(C)(C)C)cc23)c1 [EM146] | 0.5 |
| CC(C)c1ccc(N(c2ccccc2)c2c3ccccc3c(N(c3ccccc3)c3ccc(C(C)C)cc3)c3cc(C45CC6CC(CC(C6)C4)C5)ccc23)cc1 [EM177] | 0.5 |
| CC(C)c1ccc(N(c2ccccc2)c2c3ccc(C(C)(C)C)cc3c(N(c3ccccc3)c3ccc(C(C)C)cc3)c3ccc(C(C)(C)C)cc23)cc1 [EM142] | 0.5 |
| Cc1cccc(N(c2ccc(C)c(C)c2)c2c3ccc(C(C)(C)C)cc3c(N(c3cccc(C)c3)c3ccc(C)c(C)c3)c3ccc(C(C)(C)C)cc23)c1 [EM147] | 1 |
| c1ccc(N(c2ccc3ccccc3c2)c2c3ccccc3c(N(c3ccccc3)c3ccc4ccccc4c3)c3cc(C4CCCCC4)ccc23)cc1 [EM174] | 0.5 |
| Cc1cccc(N(c2cccc(C)c2)c2c3ccc(C(C)C)cc3c(N(c3cccc(C)c3)c3cccc(C)c3)c3ccc(C(C)C)cc23)c1 [EM149] | 0.5 |
| Cc1ccc(N(c2ccc(C(C)(C)C)cc2)c2c3ccccc3c(N(c3ccc(C)cc3)c3ccc(C(C)(C)C)cc3)c3cc(C(C)C)ccc23)cc1 [EM140] | 0.5 |
| CC(C)(C)c1ccc2c(N(c3ccc4ccccc4c3)c3ccc4ccccc4c3)c3cc(C(C)(C)C)ccc3c(N(c3ccc4ccccc4c3)c3ccc4ccccc4c3)c2c1 [EM148] | 0.5 |
| CC(C)c1ccc2c(N(c3ccc(-c4ccccc4)cc3)c3ccc4ccccc4c3)c3cc(CC4CCCCC4)ccc3c(N(c3ccc(-c4ccccc4)cc3)c3ccc4ccccc4c3)c2c1 [EM136] | 0.5 |
| Cc1ccc(N(c2ccc(C)cc2)c2c3ccccc3c(N(c3ccc(C)cc3)c3ccc(C)cc3)c3cc(C(C)(C)C)ccc23)cc1 [EM139] | 0.5 |

Same assay, conditions: Table 3

| SMILES | Solubility (%) |
| --- | --- |
| CCC(C)c1ccc(N(c2ccc(-c3ccccc3)cc2)c2ccc(N(c3ccc(-c4ccccc4)cc3)c3ccc(C(C)CC)cc3)c3ccccc23)cc1 (centres unmarked) [EM191] | 1 |
| Cc1ccc(N(c2ccc(C(C)C)cc2)c2cc3c4ccccc4c(N(c4ccc(C)cc4)c4ccc(C(C)C)cc4)cc3c3ccccc23)cc1 [EM213] | 0.5 |
| Cc1ccc(N(c2ccc(C(C)C)cc2)c2c3ccccc3c(-c3c4ccccc4c(N(c4ccc(C)cc4)c4ccc(C(C)C)cc4)c4cc(C(C)(C)C)ccc34)c3ccc(C(C)(C)C)cc23)cc1 [EM209] | 0.5 |
| c1ccc(-c2cc(N(c3ccc(C4CCCCC4)cc3)c3cc4ccccc4c4ccccc34)c3cc(-c4ccccc4)cc(N(c4ccc(C5CCCCC5)cc4)c4cc5ccccc5c5ccccc45)c3c2)cc1 [EM192] | 1 |
| CC(C)c1ccc(N(c2ccc(C(C)C)cc2)c2cc3c4ccccc4c(N(c4ccc(C(C)C)cc4)c4ccc(C(C)C)cc4)cc3c3ccccc23)cc1 [EM212] | 1 |
| Cc1cc(C)cc(N(c2ccc(C(C)C)cc2)c2c3ccccc3c(-c3c4ccccc4c(N(c4ccc(C(C)C)cc4)c4cc(C)cc(C)c4)c4ccccc34)c3ccccc23)c1 [EM208] | 1 |
| Cc1cc(C)cc(N(c2ccc(C(C)C)cc2)c2cc3c4ccccc4c(N(c4ccc(C(C)C)cc4)c4cc(C)cc(C)c4)cc3c3ccccc23)c1 [EM215] | 1 |
| Cc1ccc(N(c2ccc(C(C)C)cc2)c2ccc3ccc4c(N(c5ccc(C)cc5)c5ccc(C(C)C)cc5)ccc5ccc2c3c54)cc1 [EM193] | 0.5 |
| CC(C)c1ccc(N(c2ccc3ccccc3c2)c2ccc3ccc4c(N(c5ccc(C(C)C)cc5)c5ccc6ccccc6c5)ccc5ccc2c3c54)cc1 [EM194] | 1 |
| Cc1cc(C)cc(N(c2ccc(C(C)C)cc2)c2ccc3ccc4c(N(c5ccc(C(C)C)cc5)c5cc(C)cc(C)c5)ccc5ccc2c3c54)c1 [EM195] | 0.5 |
| CC(C)c1ccc(N(c2ccc(C(C)(C)C)cc2)c2c3ccccc3c(N(c3ccc(C(C)C)cc3)c3ccc(C(C)(C)C)cc3)c3ccccc23)cc1 [EM205] | 0.5 |
| CC(C)c1ccc(N(c2ccc(C(C)C)cc2)c2c3ccccc3c(N(c3ccc(C(C)C)cc3)c3ccc(C(C)C)cc3)c3ccccc23)cc1 [EM204] | 0.5 |
| Cc1ccc(N(c2ccc(C(C)C)cc2)c2c3ccccc3c(N(c3ccc(C(C)C)cc3)c3ccc(C(C)C)cc3)c3c2ccc2ccccc23)cc1 [EM211] | 1 |
| CC(C)c1ccc(N(c2ccc(C(C)C)cc2)c2ccc3ccc4c(N(c5ccc(C(C)C)cc5)c5ccc(C(C)C)cc5)ccc5ccc2c3c54)cc1 [EM196] | 1 |
| CC(C)c1ccc(N(c2cccc(C(C)(C)C)c2)c2cc3c4ccccc4c(N(c4ccc(C(C)C)cc4)c4cccc(C(C)(C)C)c4)cc3c3ccccc23)cc1 [EM214] | 1 |
| CC(C)c1ccc(N(c2cccc(-c3ccccc3)c2)c2c3ccccc3c(-c3c4ccccc4c(N(c4ccc(C(C)C)cc4)c4cccc(-c5ccccc5)c4)c4ccccc34)c3ccccc23)cc1 [EM207] | 0.5 |
| CC(C)c1ccc(N(c2ccc(C(C)(C)C)cc2)c2ccc3ccc4c(N(c5ccc(C(C)C)cc5)c5ccc(C(C)(C)C)cc5)ccc5ccc2c3c54)cc1 [EM197] | 1 |
| CCc1ccc(N(c2ccc(C(C)CC)cc2)c2c3ccccc3c(-c3c4ccccc4c(N(c4ccc(CC)cc4)c4ccc(C(C)CC)cc4)c4ccccc34)c3ccccc23)cc1 (centres unmarked) [EM206] | 0.5 |
| Cc1ccc(N(c2ccc(C(C)C)cc2)c2c3ccccc3c(N(c3ccc(C)cc3)c3ccc(C(C)C)cc3)c3c2ccc2ccccc23)cc1 [EM210] | 1 |

Same assay, conditions: Table 4

| SMILES | Solubility (%) |
| --- | --- |
| Cc1ccc(N(c2ccc(C(C)C)cc2)c2c3ccccc3c(N(c3ccc(C)cc3)c3ccc(C(C)C)cc3)c3cc(C45CC6CC(CC(C6)C4)C5)ccc23)cc1 [EM176] | 0.5 |
| Cc1ccc(N(c2ccc(C)cc2)c2ccc(/C=C/c3ccc(/C=C/c4ccc(N(c5ccc(C)cc5)c5ccc(C)cc5)cc4)cc3)cc2)cc1 [Compound D4, reference compound] | <0.1 |
| Cc1cccc(N(c2cccc(C)c2)c2c3ccccc3c(N(c3cccc(C)c3)c3cccc(C)c3)c3cc(C4CC5CCC4C5)ccc23)c1 (centres unmarked) [EM175] | 0.5 |
| c1ccc(N(c2ccccc2)c2c3ccccc3c(N(c3ccccc3)c3ccccc3)c3ccccc23)cc1 [Compound D3, reference compound] | <0.1 |
| CC(C)c1ccc(N(c2ccccc2)c2c3ccccc3c(N(c3ccccc3)c3ccc(C(C)C)cc3)c3cc(C45CC6CC(CC(C6)C4)C5)ccc23)cc1 [EM177] | 0.5 |
| CCC(C)c1ccc(N(c2ccc(/C=C/c3ccc(/C=C/c4ccc(N(c5ccc(C(C)CC)cc5)c5ccc(C(C)CC)cc5)cc4)cc3)cc2)c2ccc(C(C)CC)cc2)cc1 (centres unmarked) [Compound D1] | 0.5 |
